Reference: patent US10308639B2, “Phosphatidylinositol 3-kinase inhibitors” (Gilead Sciences, Inc., priority 2014, dated 2019)
pIC50: −log10 of the molar value.

Tests used:
Format in all cases: biochemical
PI3Kβ = target: T1, PI3Kβ (Homo sapiens, UniProt P42338); test: TR-FRET enzymatic activity assay, PI3Kβ; settings: Table 2a; same assay
T1 construct: made in house

PI3Kγ = target: T2, PI3Kγ (Homo sapiens, UniProt P48736); test: TR-FRET enzymatic activity assay, PI3Kγ; settings: Table 2a; same assay; read-out: PI3Kγ IC50
T2 construct: made in house
T2 sequence (P48736 whole entry): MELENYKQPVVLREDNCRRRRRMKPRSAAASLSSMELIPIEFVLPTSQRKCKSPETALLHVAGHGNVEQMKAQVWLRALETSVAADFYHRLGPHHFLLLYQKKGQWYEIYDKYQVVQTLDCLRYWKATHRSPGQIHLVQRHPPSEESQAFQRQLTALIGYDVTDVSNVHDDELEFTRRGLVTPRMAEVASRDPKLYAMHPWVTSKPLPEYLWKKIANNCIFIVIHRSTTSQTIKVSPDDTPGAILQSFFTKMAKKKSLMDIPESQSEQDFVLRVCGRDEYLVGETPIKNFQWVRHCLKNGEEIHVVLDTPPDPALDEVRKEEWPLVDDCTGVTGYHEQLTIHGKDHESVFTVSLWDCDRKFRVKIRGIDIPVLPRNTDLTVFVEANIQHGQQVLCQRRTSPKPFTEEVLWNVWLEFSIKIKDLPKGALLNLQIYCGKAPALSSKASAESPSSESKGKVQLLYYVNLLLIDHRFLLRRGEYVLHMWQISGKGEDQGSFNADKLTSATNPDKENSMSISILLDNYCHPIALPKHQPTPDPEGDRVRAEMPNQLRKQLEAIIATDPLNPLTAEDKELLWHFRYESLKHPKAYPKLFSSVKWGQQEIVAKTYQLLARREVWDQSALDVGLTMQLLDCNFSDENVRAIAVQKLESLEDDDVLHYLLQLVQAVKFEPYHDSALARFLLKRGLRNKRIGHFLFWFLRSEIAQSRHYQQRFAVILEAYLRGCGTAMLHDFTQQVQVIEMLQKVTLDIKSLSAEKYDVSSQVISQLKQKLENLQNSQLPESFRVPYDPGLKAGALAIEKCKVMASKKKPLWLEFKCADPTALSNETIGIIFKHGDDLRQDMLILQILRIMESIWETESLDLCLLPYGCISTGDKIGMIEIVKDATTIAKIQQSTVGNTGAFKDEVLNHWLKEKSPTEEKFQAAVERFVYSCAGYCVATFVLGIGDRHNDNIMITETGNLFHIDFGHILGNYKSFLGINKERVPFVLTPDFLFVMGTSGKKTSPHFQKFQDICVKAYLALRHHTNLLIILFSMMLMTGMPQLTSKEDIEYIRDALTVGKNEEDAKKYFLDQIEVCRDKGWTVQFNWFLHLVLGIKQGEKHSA
How it was run: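 Compounds were profiled per isoform in a biochemical kinase reaction, with activity detected by time-resolved fluorescence resonance energy transfer.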

PI3Kδ = target: T3, PI3Kδ (Homo sapiens, UniProt O00329); test: TR-FRET enzymatic activity assay, PI3Kδ; settings: Table 2a; same assay
T3 construct: made in house
T3 sequence (O00329 whole entry): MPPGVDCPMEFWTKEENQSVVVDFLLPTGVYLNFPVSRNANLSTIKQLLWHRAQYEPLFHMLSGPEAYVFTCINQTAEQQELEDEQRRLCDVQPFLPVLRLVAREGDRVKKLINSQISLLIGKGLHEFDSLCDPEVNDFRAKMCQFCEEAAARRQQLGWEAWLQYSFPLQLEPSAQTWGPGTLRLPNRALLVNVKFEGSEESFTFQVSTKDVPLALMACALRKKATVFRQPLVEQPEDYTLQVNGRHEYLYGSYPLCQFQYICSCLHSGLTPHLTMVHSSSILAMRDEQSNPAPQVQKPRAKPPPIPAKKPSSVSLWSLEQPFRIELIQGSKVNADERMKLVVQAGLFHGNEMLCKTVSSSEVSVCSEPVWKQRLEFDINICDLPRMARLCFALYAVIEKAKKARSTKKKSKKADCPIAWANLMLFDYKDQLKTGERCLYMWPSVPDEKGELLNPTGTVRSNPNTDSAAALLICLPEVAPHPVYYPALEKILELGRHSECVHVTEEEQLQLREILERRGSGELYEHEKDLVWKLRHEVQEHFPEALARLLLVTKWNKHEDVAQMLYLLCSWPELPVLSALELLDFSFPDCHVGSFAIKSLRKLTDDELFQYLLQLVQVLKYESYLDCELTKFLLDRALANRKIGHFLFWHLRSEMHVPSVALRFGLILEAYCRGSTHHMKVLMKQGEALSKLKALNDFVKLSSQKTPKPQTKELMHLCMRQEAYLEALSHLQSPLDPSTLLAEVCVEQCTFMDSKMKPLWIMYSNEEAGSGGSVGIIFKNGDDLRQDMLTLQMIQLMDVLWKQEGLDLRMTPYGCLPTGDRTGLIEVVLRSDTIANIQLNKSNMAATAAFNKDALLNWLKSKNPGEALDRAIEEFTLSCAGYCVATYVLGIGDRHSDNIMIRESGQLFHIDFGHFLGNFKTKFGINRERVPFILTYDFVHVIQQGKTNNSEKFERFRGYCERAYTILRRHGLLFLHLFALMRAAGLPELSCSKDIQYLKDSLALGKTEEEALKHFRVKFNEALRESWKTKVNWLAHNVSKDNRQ
T3 sequence (P27986 whole entry partner): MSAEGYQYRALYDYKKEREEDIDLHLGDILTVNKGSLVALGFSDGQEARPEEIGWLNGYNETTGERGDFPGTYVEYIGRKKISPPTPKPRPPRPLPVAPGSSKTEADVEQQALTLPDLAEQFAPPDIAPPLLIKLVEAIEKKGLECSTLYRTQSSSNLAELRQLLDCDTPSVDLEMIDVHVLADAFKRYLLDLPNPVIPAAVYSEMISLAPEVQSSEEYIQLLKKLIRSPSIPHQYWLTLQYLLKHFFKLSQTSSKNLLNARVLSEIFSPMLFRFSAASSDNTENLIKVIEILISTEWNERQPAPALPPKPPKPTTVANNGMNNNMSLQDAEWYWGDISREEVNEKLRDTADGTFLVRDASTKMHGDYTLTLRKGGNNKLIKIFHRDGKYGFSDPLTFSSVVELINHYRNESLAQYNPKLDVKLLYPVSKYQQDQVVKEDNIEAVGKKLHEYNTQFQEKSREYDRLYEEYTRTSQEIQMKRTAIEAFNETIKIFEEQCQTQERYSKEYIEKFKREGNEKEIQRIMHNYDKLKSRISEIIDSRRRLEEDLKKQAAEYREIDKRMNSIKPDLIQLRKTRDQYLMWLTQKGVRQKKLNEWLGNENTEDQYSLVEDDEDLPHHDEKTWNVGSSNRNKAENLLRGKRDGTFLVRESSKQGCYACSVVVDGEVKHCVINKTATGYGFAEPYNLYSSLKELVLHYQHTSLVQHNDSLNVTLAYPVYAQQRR

T1 sequence (P42338 whole entry): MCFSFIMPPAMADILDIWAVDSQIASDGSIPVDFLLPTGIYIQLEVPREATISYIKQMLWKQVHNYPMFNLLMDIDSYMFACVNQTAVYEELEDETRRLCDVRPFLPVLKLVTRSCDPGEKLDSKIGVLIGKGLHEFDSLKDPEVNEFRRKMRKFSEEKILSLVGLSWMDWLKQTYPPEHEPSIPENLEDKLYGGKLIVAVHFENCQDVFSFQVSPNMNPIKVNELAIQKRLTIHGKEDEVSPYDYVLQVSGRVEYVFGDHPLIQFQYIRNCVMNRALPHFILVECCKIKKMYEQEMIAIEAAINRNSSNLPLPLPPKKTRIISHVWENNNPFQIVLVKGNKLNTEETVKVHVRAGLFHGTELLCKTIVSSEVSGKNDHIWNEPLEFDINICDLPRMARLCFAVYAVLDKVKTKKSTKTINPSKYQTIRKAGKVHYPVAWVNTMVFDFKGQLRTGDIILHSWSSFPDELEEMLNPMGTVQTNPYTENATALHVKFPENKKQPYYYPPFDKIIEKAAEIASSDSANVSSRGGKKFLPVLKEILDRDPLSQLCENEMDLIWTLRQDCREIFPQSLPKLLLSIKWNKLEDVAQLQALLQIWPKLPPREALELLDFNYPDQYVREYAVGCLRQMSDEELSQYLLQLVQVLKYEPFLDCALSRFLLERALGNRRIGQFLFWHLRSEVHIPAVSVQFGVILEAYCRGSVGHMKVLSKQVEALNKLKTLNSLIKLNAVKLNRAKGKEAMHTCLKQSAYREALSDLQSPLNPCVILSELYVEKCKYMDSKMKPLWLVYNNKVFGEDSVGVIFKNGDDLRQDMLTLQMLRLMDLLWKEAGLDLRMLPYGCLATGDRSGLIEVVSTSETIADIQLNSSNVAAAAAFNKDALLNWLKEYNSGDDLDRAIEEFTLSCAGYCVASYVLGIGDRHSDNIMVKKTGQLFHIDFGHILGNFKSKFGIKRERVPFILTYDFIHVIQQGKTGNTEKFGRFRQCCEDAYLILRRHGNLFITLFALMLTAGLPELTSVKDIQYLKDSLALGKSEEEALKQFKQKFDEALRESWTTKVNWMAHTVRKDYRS
T1 sequence (P27986 whole entry partner): as the sequence (P27986 whole entry partner) above

Row | Compound | pIC50 (PI3Kβ) | pIC50 (PI3Kγ) | pIC50 (PI3Kδ)
1 | C[C@H](Nc1nc(N)nc(C(F)F)c1C#N)c1nc2c(F)ccc(F)c2c(=O)n1-c1cc[nH]n1 [Compound 192, (S)-2-amino-4-((1-(5,8-difluoro-4-oxo-3-(1H-pyrazol-3-yl)-3,4-dihydroquinazolin-2-yl)ethyl)amino)-6-(difluoromethyl)pyrimidine-5-carbonitrile] | 7.21 | 5.33 | 7.68
2 | N#Cc1c(N[C@H](c2nc3c(F)ccc(Cl)c3c(=O)n2-c2cc[nH]n2)C2CC2)nc(N)nc1C(F)F [Compound 194, (S)-2-amino-4-(((5-chloro-8-fluoro-4-oxo-3-(1H-pyrazol-3-yl)-3,4-dihydroquinazolin-2-yl)(cyclopropyl)methyl)amino)-6-(difluoromethyl)pyrimidine-5-carbonitrile] | 7.64 | 5.66 | 7.70
3 | N#Cc1c(N[C@H](c2nc3c(F)cc(F)cc3c(=O)n2-c2cc[nH]n2)C2CC2)nc(N)nc1C(F)F [Compound 195, (S)-2-amino-4-((cyclopropyl(6,8-difluoro-4-oxo-3-(1H-pyrazol-3-yl)-3,4-dihydroquinazolin-2-yl)methyl)amino)-6-(difluoromethyl)pyrimidine-5-carbonitrile] | 7.38 | 5.42 | 7.62
4 | N#Cc1c(N[C@H](c2nc3c(Cl)cccc3c(=O)n2-c2cc[nH]n2)C2CC2)nc(N)nc1C(F)F [Compound 196, (S)-2-amino-4-(((8-chloro-4-oxo-3-(1H-pyrazol-3-yl)-3,4-dihydroquinazolin-2-yl)(cyclopropyl)methyl)amino)-6-(difluoromethyl)pyrimidine-5-carbonitrile] | 7.72 | 5.16 | 7.72
5 | C[C@H](Nc1nc(C(F)F)nc(N)c1C#N)c1nc2cccc(Cl)c2c(=O)n1-c1cc[nH]n1 [Compound 197, (S)-4-amino-6-((1-(5-chloro-4-oxo-3-(1H-pyrazol-3-yl)-3,4-dihydroquinazolin-2-yl)ethyl)amino)-2-(difluoromethyl)pyrimidine-5-carbonitrile] | 6.15 | < 5.00 | 6.27
6 | C[C@H](Nc1nc(C(F)F)nc(N)c1C#N)c1nc2c(Cl)cc(F)cc2c(=O)n1-c1cc[nH]n1 [Compound 198, (S)-4-amino-6-((1-(8-chloro-6-fluoro-4-oxo-3-(1H-pyrazol-3-yl)-3,4-dihydroquinazolin-2-yl)ethyl)amino)-2-(difluoromethyl)pyrimidine-5-carbonitrile] | 6.24 | < 5.00 | 6.08
7 | C[C@H](Nc1nc(N)nc(N)c1Cl)c1nc2cccc(Cl)c2c(=O)n1-c1cc(N)[nH]n1 [Compound 199, (S)-3-(5-amino-1H-pyrazol-3-yl)-5-chloro-2-(1-((2,6-diamino-5-chloropyrimidin-4-yl)amino)ethyl)quinazolin-4(3H)-one] | 8.15 | 5.27 | 7.80
8 | C[C@H](Nc1nc(N)nc(N)c1Cl)c1nc2c(C(F)F)cccc2c(=O)n1-c1cc[nH]n1 [Compound 200, (S)-2-(1-((2,6-diamino-5-chloropyrimidin-4-yl)amino)ethyl)-8-(difluoromethyl)-3-(1H-pyrazol-3-yl)quinazolin-4(3H)-one] | 6.55 | < 5.00 | 6.80
9 | C[C@H](Nc1nc(N)nc(N)c1C(F)(F)F)c1nc2cccc(Cl)c2c(=O)n1-c1cc[nH]n1 [Compound 201, (S)-5-chloro-2-(1-((2,6-diamino-5-(trifluoromethyl)pyrimidin-4-yl)amino)ethyl)-3-(1H-pyrazol-3-yl)quinazolin-4(3H)-one] | 8.52 | 6.00 | 8.52
10 | C[C@H](Nc1ncnc2scc(C#N)c12)c1nc2cccc(Cl)c2c(=O)n1-c1cc[nH]n1 [Compound 202, (S)-4-((1-(5-chloro-4-oxo-3-(1H-pyrazol-3-yl)-3,4-dihydroquinazolin-2-yl)ethyl)amino)thieno[2,3-d]pyrimidine-5-carbonitrile] | 7.21 | 7.85 | 9.30
11 | Cc1c[nH]nc1-n1c([C@@H](Nc2nc(N)nc(C)c2C#N)C2CC2)nc2c(C#N)cccc2c1=O [Compound 203, (S)-2-(((2-amino-5-cyano-6-methylpyrimidin-4-yl)amino)(cyclopropyl)methyl)-3-(4-methyl-1H-pyrazol-3-yl)-4-oxo-3,4-dihydroquinazoline-8-carbonitrile] | 7.43 | < 5.00 | 8.30
12 | Cc1c[nH]nc1-n1c([C@@H](Nc2nc(N)nc(N)c2Cl)C2CC2)nc2c(C#N)cccc2c1=O [Compound 204, (S)-2-(cyclopropyl((2,6-diamino-5-chloropyrimidin-4-yl)amino)methyl)-3-(4-methyl-1H-pyrazol-3-yl)-4-oxo-3,4-dihydroquinazoline-8-carbonitrile] | 5.49 | < 5.00 | 6.51
13 | C[C@H](Nc1nc(N)nc(N)c1C#N)c1nc2cccc(C(F)(F)F)c2c(=O)n1-c1cc[nH]n1 [Compound 205, (S)-2,4-diamino-6-((1-(4-oxo-3-(1H-pyrazol-3-yl)-5-(trifluoromethyl)-3,4-dihydroquinazolin-2-yl)ethyl)amino)pyrimidine-5-carbonitrile] | 8.70 | 6.49 | 9.15
14 | C[C@H](Nc1nc(N)nc(N)c1C#N)c1nc2cccc(C(F)(F)F)c2c(=O)n1-c1cn[nH]c1 [Compound 206, (S)-2,4-diamino-6-((1-(4-oxo-3-(1H-pyrazol-4-yl)-5-(trifluoromethyl)-3,4-dihydroquinazolin-2-yl)ethyl)amino)pyrimidine-5-carbonitrile] | 8.52 | 6.92 | 8.70
15 | N#Cc1c(N)nc(N)nc1N[C@H](c1nc2cccc(C(F)(F)F)c2c(=O)n1-c1cc[nH]n1)C1CC1 [Compound 207, (S)-2,4-diamino-6-((cyclopropyl(4-oxo-3-(1H-pyrazol-3-yl)-5-(trifluoromethyl)-3,4-dihydroquinazolin-2-yl)methyl)amino)pyrimidine-5-carbonitrile] | 8.40 | 6.19 | 8.70
16 | C[C@H](Nc1nc(N)nc(N)c1Cl)c1nc2cccc(C(F)(F)F)c2c(=O)n1-c1cc[nH]n1 [Compound 208, (S)-2-(1-((2,6-diamino-5-chloropyrimidin-4-yl)amino)ethyl)-3-(1H-pyrazol-3-yl)-5-(trifluoromethyl)quinazolin-4(3H)-one] | 8.10 | 5.36 | 8.22
17 | C[C@H](Nc1nc(N)nc(N)c1Cl)c1nc2cccc(C(F)(F)F)c2c(=O)n1-c1cn[nH]c1 [Compound 209, (S)-2-(1-((2,6-diamino-5-chloropyrimidin-4-yl)amino)ethyl)-3-(1H-pyrazol-4-yl)-5-(trifluoromethyl)quinazolin-4(3H)-one] | 7.08 | 5.74 | 7.80
18 | Nc1nc(N)c(Cl)c(N[C@H](c2nc3cccc(C(F)(F)F)c3c(=O)n2-c2cc[nH]n2)C2CC2)n1 [Compound 210, (S)-2-(cyclopropyl((2,6-diamino-5-chloropyrimidin-4-yl)amino)methyl)-3-(1H-pyrazol-3-yl)-5-(trifluoromethyl)quinazolin-4(3H)-one] | 7.43 | 5.18 | 7.72
